Measurements as given in patent publication US20250353891A1 (MEDIMMUNE LIMITED, priority 2022, published 2025).
Starred links: 1 amine or outer side, 2 acyl side, 3 side chain; linkers in the order of their positions; H or OH if unused. Non-standard residues stand in square brackets, D forms with d. Residues, ends and D or L forms follow the SMILES beside them. Groups on a side chain read outwards from the residue. *: point of attachment. γGlu = O=C(O)[C@H](CCC(=O)[*:2])N[*:1]; Stearoyl = CCCCCCCCCCCCCCCCCC(=O)*; Palmitoyl = CCCCCCCCCCCCCCCC(=O)*; αMeF = C[C@](N)(Cc1ccccc1)C(=O)O; PEG2 = NCCOCCOCCC(=O)O; Aib = CC(C)(N)C(=O)O

Columns and labels:
[1] = target: human glucagon receptor (hGCGR) (Homo sapiens, UniProt P47871); test: cAMP production (HTRF) in CHO cells expressing hGCGR; type: cell-based; parameters: expressed in transfected cells; conditions: Table 6, peptides modified at position 17; cAMP in CHO hGCGR cells; geometric mean; read-out: hGluc-R EC50
Chain of human glucagon receptor (hGCGR) (P47871 26-477): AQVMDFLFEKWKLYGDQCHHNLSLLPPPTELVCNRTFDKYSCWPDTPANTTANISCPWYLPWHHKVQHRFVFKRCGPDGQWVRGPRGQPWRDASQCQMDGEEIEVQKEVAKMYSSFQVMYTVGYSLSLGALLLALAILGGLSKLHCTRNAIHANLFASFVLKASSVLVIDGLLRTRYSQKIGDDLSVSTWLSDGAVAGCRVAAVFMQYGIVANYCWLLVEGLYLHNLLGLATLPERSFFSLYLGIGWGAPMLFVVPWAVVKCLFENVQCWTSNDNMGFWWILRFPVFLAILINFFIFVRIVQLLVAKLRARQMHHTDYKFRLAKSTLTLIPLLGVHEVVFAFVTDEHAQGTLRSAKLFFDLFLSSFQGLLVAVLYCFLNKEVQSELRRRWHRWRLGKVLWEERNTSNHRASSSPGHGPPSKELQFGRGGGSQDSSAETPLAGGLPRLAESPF
Summary of the method: (§1)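 Potency values represent EC50 from 4-parameter logistic curves of HTRF % Delta F signal. Receptor-expressing CHO cells (hGCGR 2×10^5 cells/mL, hGLP-1R 1×10^5 cells/mL) were exposed for 30 min at room temperature before two-step cAMP detection.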

[2] = target: human GLP-1 receptor (hGLP-1R) (Homo sapiens, UniProt P43220); test: cAMP production (HTRF) in CHO cells expressing hGLP-1R; type: cell-based; parameters: expressed in transfected cells; conditions: for EC50: Table 6, peptides modified at position 17, cAMP in CHO hGLP-1R cells, geometric mean, read-out: hGLP-1R EC50; for % Relative Potency Ratio: Table 6, % GLP-1R activity relative to GLP-1 / % GlucR activity relative to glucagon
Chain of human GLP-1 receptor (hGLP-1R) (P43220 24-463): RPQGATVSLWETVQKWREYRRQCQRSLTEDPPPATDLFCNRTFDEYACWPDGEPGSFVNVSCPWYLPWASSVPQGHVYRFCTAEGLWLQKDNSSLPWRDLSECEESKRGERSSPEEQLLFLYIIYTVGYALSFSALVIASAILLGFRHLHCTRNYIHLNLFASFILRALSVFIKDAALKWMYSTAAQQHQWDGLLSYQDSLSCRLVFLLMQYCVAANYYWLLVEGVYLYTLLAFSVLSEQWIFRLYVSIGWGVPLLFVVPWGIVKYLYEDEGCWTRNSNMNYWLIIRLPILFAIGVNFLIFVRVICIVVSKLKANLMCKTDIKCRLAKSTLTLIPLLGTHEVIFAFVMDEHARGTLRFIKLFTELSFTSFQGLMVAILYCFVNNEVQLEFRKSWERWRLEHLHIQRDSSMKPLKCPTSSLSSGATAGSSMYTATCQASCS
Summary of the method: as §1

## CCCCCCCCCCCCCCCCCC(=O)N[C@@H](CCC(=O)N[C@@H](CCC(=O)NCCOCCOCCC(=O)NCCOCCOCCC(=O)NCCCC[C@H](NC(=O)[C@H](CO)NC(=O)[C@H](CC(=O)O)NC(=O)[C@H](CC(C)C)NC(=O)C(C)(C)NC(=O)[C@H](CCCCN)NC(=O)[C@H](CO)NC(=O)[C@@H](NC(=O)[C@H](CC(=O)O)NC(=O)[C@H](CO)NC(=O)[C@@H](NC(=O)[C@](C)(Cc1ccccc1)NC(=O)[C@H](CO)NC(=O)CNC(=O)[C@H](CCC(N)=O)NC(=O)[C@H](CO)NC(=O)[C@@H](N)Cc1c[nH]cn1)[C@@H](C)O)C(C)C)C(=O)N[C@@H](C)C(=O)N[C@@H](C)C(=O)N[C@@H](CCC(N)=O)C(=O)N[C@@H](CC(=O)O)C(=O)N[C@@](C)(Cc1ccccc1)C(=O)N[C@H](C(=O)N[C@@H](CCC(N)=O)C(=O)NC(C)(C)C(=O)N[C@H](C(=O)N[C@H](C(=O)N[C@@H](CCC(=O)O)C(N)=O)[C@@H](C)CC)[C@@H](C)CC)C(C)C)C(=O)O)C(=O)O [Peptide 98] (H-HSQGS[αMeF]TSDVSK[Aib]LDSK([PEG2-PEG2-γGlu-γGlu-Stearoyl])AAQD[αMeF]VQ[Aib]IIE-NH2; N-terminus assumed)
[1]
  EC50: 0.0541 nM
[2]
  EC50: 0.00244 nM
  % Relative Potency Ratio: 43.8

## CCCCCCCCCCCCCCCC(=O)N[C@@H](CCC(=O)N[C@@H](CCC(=O)NCCOCCOCCC(=O)NCCOCCOCCC(=O)NCCCC[C@H](NC(=O)[C@H](CO)NC(=O)[C@H](CC(=O)O)NC(=O)[C@H](CC(C)C)NC(=O)C(C)(C)NC(=O)[C@H](CCCCN)NC(=O)[C@H](CO)NC(=O)[C@@H](NC(=O)[C@H](CC(=O)O)NC(=O)[C@H](CO)NC(=O)[C@@H](NC(=O)[C@](C)(Cc1ccccc1)NC(=O)[C@H](CO)NC(=O)CNC(=O)[C@H](CCC(N)=O)NC(=O)[C@H](CO)NC(=O)[C@@H](N)Cc1c[nH]cn1)[C@@H](C)O)C(C)C)C(=O)N[C@@H](C)C(=O)N[C@@H](C)C(=O)N[C@@H](CCC(N)=O)C(=O)N[C@@H](CC(=O)O)C(=O)N[C@@](C)(Cc1ccccc1)C(=O)N[C@H](C(=O)N[C@@H](CCC(N)=O)C(=O)NC(C)(C)C(=O)N[C@H](C(=O)N[C@@H](C)C(=O)N[C@@H](CC(N)=O)C(N)=O)[C@@H](C)CC)C(C)C)C(=O)O)C(=O)O [Peptide 99] (H-HSQGS[αMeF]TSDVSK[Aib]LDSK([PEG2-PEG2-γGlu-γGlu-Palmitoyl])AAQD[αMeF]VQ[Aib]IAN-NH2; N-terminus assumed)
[1]
  EC50: 0.0332 nM
[2]
  EC50: 0.00221 nM
  % Relative Potency Ratio: 29.7

## CCCCCCCCCCCCCCCCCC(=O)N[C@@H](CCC(=O)N[C@@H](CCC(=O)NCCOCCOCCC(=O)NCCOCCOCCC(=O)NCCCC[C@H](NC(=O)[C@H](CO)NC(=O)[C@H](CC(=O)O)NC(=O)[C@H](CC(C)C)NC(=O)C(C)(C)NC(=O)[C@H](CCCCN)NC(=O)[C@H](CO)NC(=O)[C@@H](NC(=O)[C@H](CC(=O)O)NC(=O)[C@H](CO)NC(=O)[C@@H](NC(=O)[C@](C)(Cc1ccccc1)NC(=O)[C@H](CO)NC(=O)CNC(=O)[C@H](CCC(N)=O)NC(=O)C(C)(C)NC(=O)[C@@H](N)Cc1c[nH]cn1)[C@@H](C)O)C(C)C)C(=O)N[C@@H](C)C(=O)N[C@@H](C)C(=O)N[C@@H](CCC(N)=O)C(=O)N[C@@H](CC(=O)O)C(=O)N[C@@](C)(Cc1ccccc1)C(=O)N[C@H](C(=O)N[C@@H](CCC(N)=O)C(=O)NC(C)(C)C(=O)N[C@H](C(=O)N[C@@H](C)C(=O)N[C@@H](CC(N)=O)C(N)=O)[C@@H](C)CC)C(C)C)C(=O)O)C(=O)O [Peptide 100] (H-H[Aib]QGS[αMeF]TSDVSK[Aib]LDSK([PEG2-PEG2-γGlu-γGlu-Stearoyl])AAQD[αMeF]VQ[Aib]IAN-NH2; N-terminus assumed)
[1]
  EC50: 0.0405 nM
[2]
  % Relative Potency Ratio: 310.3

## CCCCCCCCCCCCCCCCCC(=O)N[C@@H](CCC(=O)N[C@@H](CCC(=O)NCCOCCOCCC(=O)NCCOCCOCCC(=O)NCCCC[C@H](NC(=O)[C@H](CO)NC(=O)[C@H](CC(=O)O)NC(=O)[C@H](CC(C)C)NC(=O)C(C)(C)NC(=O)[C@H](CCCCN)NC(=O)[C@H](CO)NC(=O)[C@@H](NC(=O)[C@H](CC(=O)O)NC(=O)[C@H](CO)NC(=O)[C@@H](NC(=O)[C@](C)(Cc1ccccc1)NC(=O)[C@H](CO)NC(=O)CNC(=O)[C@H](CCC(N)=O)NC(=O)C(C)(C)NC(=O)[C@@H](N)Cc1c[nH]cn1)[C@@H](C)O)C(C)C)C(=O)N[C@@H](C)C(=O)N[C@@H](C)C(=O)N[C@@H](CCC(N)=O)C(=O)N[C@@H](CC(=O)O)C(=O)N[C@@](C)(Cc1ccccc1)C(=O)N[C@H](C(=O)N[C@@H](CCC(N)=O)C(=O)N[C@@H](Cc1c[nH]c2ccccc12)C(=O)N[C@H](C(=O)N[C@@H](C)C(=O)N[C@@H](CC(N)=O)C(N)=O)[C@@H](C)CC)C(C)C)C(=O)O)C(=O)O [Peptide 103] (H-H[Aib]QGS[αMeF]TSDVSK[Aib]LDSK([PEG2-PEG2-γGlu-γGlu-Stearoyl])AAQD[αMeF]VQWIAN-NH2; N-terminus assumed)
[1]
  EC50: 0.0594 nM
[2]
  % Relative Potency Ratio: 220.8

## CCCCCCCCCCCCCCCCCC(=O)N[C@@H](CCC(=O)N[C@@H](CCC(=O)NCCOCCOCCC(=O)NCCOCCOCCC(=O)NCCCC[C@H](NC(=O)[C@H](CO)NC(=O)[C@H](CC(=O)O)NC(=O)[C@H](CC(C)C)NC(=O)C(C)(C)NC(=O)[C@H](CCCCN)NC(=O)[C@H](CO)NC(=O)[C@@H](NC(=O)[C@H](CC(=O)O)NC(=O)[C@H](CO)NC(=O)[C@@H](NC(=O)[C@](C)(Cc1ccccc1)NC(=O)[C@H](CO)NC(=O)CNC(=O)[C@H](CCC(N)=O)NC(=O)[C@@H](NC(=O)[C@@H](N)Cc1c[nH]cn1)[C@@H](C)O)[C@@H](C)O)C(C)C)C(=O)N[C@@H](C)C(=O)N[C@@H](C)C(=O)N[C@@H](CCC(N)=O)C(=O)N[C@@H](CC(=O)O)C(=O)N[C@@](C)(Cc1ccccc1)C(=O)N[C@H](C(=O)N[C@@H](CCC(N)=O)C(=O)NC(C)(C)C(=O)N[C@H](C(=O)N[C@@H](C)C(=O)N[C@@H](CC(N)=O)C(N)=O)[C@@H](C)CC)C(C)C)C(=O)O)C(=O)O [Peptide 104] (H-HTQGS[αMeF]TSDVSK[Aib]LDSK([PEG2-PEG2-γGlu-γGlu-Stearoyl])AAQD[αMeF]VQ[Aib]IAN-NH2; N-terminus assumed)
[1]
  EC50: 0.0456 nM
[2]
  EC50: 0.247 nM
  % Relative Potency Ratio: 0.4

## CCCCCCCCCCCCCCCC(=O)N[C@@H](CCC(=O)N[C@@H](CCC(=O)NCCOCCOCCC(=O)NCCOCCOCCC(=O)NCCCC[C@H](NC(=O)[C@H](CO)NC(=O)[C@H](CC(=O)O)NC(=O)[C@H](CC(C)C)NC(=O)C(C)(C)NC(=O)[C@H](CCCCN)NC(=O)[C@H](CO)NC(=O)[C@@H](NC(=O)[C@H](CC(=O)O)NC(=O)[C@H](CO)NC(=O)[C@@H](NC(=O)[C@](C)(Cc1ccccc1)NC(=O)[C@H](CO)NC(=O)CNC(=O)[C@H](CCC(N)=O)NC(=O)[C@H](CO)NC(=O)[C@@H](N)Cc1c[nH]cn1)[C@@H](C)O)C(C)C)C(=O)N[C@@H](CCC(N)=O)C(=O)N[C@@H](C)C(=O)N[C@@H](CCC(N)=O)C(=O)N[C@@H](CC(=O)O)C(=O)N[C@@](C)(Cc1ccccc1)C(=O)N[C@H](C(=O)N[C@@H](CCC(N)=O)C(=O)NC(C)(C)C(=O)N[C@H](C(=O)N[C@@H](C)C(=O)N[C@@H](CC(N)=O)C(N)=O)[C@@H](C)CC)C(C)C)C(=O)O)C(=O)O [Peptide 105] (H-HSQGS[αMeF]TSDVSK[Aib]LDSK([PEG2-PEG2-γGlu-γGlu-Palmitoyl])QAQD[αMeF]VQ[Aib]IAN-NH2)
[1]
  EC50: 0.121 nM
[2]
  EC50: 0.0648 nM
  % Relative Potency Ratio: 3.7

## CCCCCCCCCCCCCCCC(=O)N[C@@H](CCC(=O)N[C@@H](CCC(=O)NCCOCCOCCC(=O)NCCOCCOCCC(=O)NCCCC[C@H](NC(=O)[C@H](CO)NC(=O)[C@H](CC(=O)O)NC(=O)[C@H](CC(C)C)NC(=O)C(C)(C)NC(=O)[C@H](CCCCN)NC(=O)[C@H](CO)NC(=O)[C@@H](NC(=O)[C@H](CC(=O)O)NC(=O)[C@H](CO)NC(=O)[C@@H](NC(=O)[C@](C)(Cc1ccccc1)NC(=O)[C@H](CO)NC(=O)CNC(=O)[C@H](CCC(N)=O)NC(=O)[C@H](CO)NC(=O)[C@@H](N)Cc1c[nH]cn1)[C@@H](C)O)C(C)C)C(=O)N[C@@H](C)C(=O)N[C@@H](C)C(=O)N[C@@H](CCC(N)=O)C(=O)N[C@@H](CC(=O)O)C(=O)N[C@@](C)(Cc1ccccc1)C(=O)N[C@H](C(=O)N[C@@H](CCC(N)=O)C(=O)N[C@@H](Cc1c[nH]cn1)C(=O)N[C@H](C(=O)N[C@@H](C)C(=O)N[C@@H](CC(N)=O)C(N)=O)[C@@H](C)CC)C(C)C)C(=O)O)C(=O)O [Peptide 106] (H-HSQGS[αMeF]TSDVSK[Aib]LDSK([PEG2-PEG2-γGlu-γGlu-Palmitoyl])AAQD[αMeF]VQHIAN-NH2)
[1]
  EC50: 0.0368 nM
[2]
  EC50: 0.00682 nM
  % Relative Potency Ratio: 10.7

## CCCCCCCCCCCCCCCC(=O)N[C@@H](CCC(=O)N[C@@H](CCC(=O)NCCOCCOCCC(=O)NCCOCCOCCC(=O)NCCCC[C@H](NC(=O)[C@H](CO)NC(=O)[C@H](CC(=O)O)NC(=O)[C@H](CC(C)C)NC(=O)C(C)(C)NC(=O)[C@H](CCCCN)NC(=O)[C@H](CO)NC(=O)[C@@H](NC(=O)[C@H](CC(=O)O)NC(=O)[C@H](CO)NC(=O)[C@@H](NC(=O)[C@](C)(Cc1ccccc1)NC(=O)[C@H](CO)NC(=O)CNC(=O)[C@H](CCC(N)=O)NC(=O)[C@H](CO)NC(=O)[C@@H](N)Cc1c[nH]cn1)[C@@H](C)O)C(C)C)C(=O)N[C@@H](CCC(N)=O)C(=O)N[C@@H](C)C(=O)N[C@@H](CCC(N)=O)C(=O)N[C@@H](CC(=O)O)C(=O)N[C@@](C)(Cc1ccccc1)C(=O)N[C@H](C(=O)N[C@@H](CCC(N)=O)C(=O)N[C@@H](Cc1c[nH]cn1)C(=O)N[C@H](C(=O)N[C@@H](C)C(=O)N[C@@H](CC(N)=O)C(N)=O)[C@@H](C)CC)C(C)C)C(=O)O)C(=O)O [Peptide 107] (H-HSQGS[αMeF]TSDVSK[Aib]LDSK([PEG2-PEG2-γGlu-γGlu-Palmitoyl])QAQD[αMeF]VQHIAN-NH2; N-terminus assumed)
[1]
  EC50: 0.0991 nM
[2]
  EC50: 0.0659 nM
  % Relative Potency Ratio: 3.0
